Each block holds one molecule with its values, some of them ahead of it.
What was measured:
SCC cells and LL/2 cells = experiment: Tumor cell invasion assay (modified Boyden chamber, Matrigel); format: cell-based, human and murine; details: SCC and LL/2 cells in Matrigel chambers, 24 hrs
Method: An in vitro assay is modified after that described previously by Chu et al. (1993) Proc. Natl. Acad. Sci. 90, 4261-4265, utilizing Matrigel®, a reconstituted basement membrane. In essence, a modified Boyden chamber containing an 8 μm-porosity polyvinylpyrolidone-free polycarbonate filter is precoated with Matrigel® (Collaborative Biomedical Products, Becton Dickinson, Bedford, Mass.). The lower well of the chamber is then filled with serum free medium containing 500 μl of 3T6 cell-conditioned medium as a chemoattractant. The upper well is then seeded with 200 μl of cell suspension at 1.0×10^4 cells/chamber plus additives as indicated. The chambers are then incubated at 37° C. for 24 hrs. […] The resulting cells contained in Matrigel®, as well as the cells in the lower chamber, are counted in a Coulter counter. Data are expressed as the percent invasion through the matrix and membrane relative to the migration through the control membrane. The “Invasion Index” is expressed as the ratio of the percent invasion of a test cell over the percent invasion of a control cell.
Overall treatment and group effects are assessed using an analysis of variance (ANOVA), with post-hoc comparisons based on the Newman-Keuls test (p<0.05). The association of mean HSP47 fluorescence labeling with the invasion index is evaluated using the nonparametric Spearman's rank-order correlation coefficient (rho).

colligin/Hsp47 = experiment: Cell surface labeling, cross-linking and immunoprecipitation; format: cell-based, human and murine; details: 1 mM amiloride; SCC and LL/2 cells
Method: The methods used were previously described for the characterization of TM4SF complexes with integrins (Berditchevski et al., (1996) Molec. Biol. of the Cell 7, 193-207). In essence, cells are labeled with NHS-LC-biotin (Pierce, Rockford, Ill.) according to kit protocol, and lysed in immunoprecipitation buffer [1% Brij 96, 25 mM Hepes, pH 7.4, 150 mM NaCl, 5 mM MgCl2, 2 mM PMSF, 20 μg/ml apotinin, and 10 μg/ml leupeptin]. Immune complexes are collected on protein A beads pre-bound with antibodies, followed by four washes with immunoprecipitation buffer. For more “stringent” conditions, the immunoprecipitation buffer is supplemented with 0.2% SDS. Immune complexes are eluted from protein A beads with Laemmli elution buffer and proteins are separated by SDS-PAGE. Proteins are transferred to nitrocellulose membranes and visualized with HRPO-conjugated ExtrAvidin (Sigma Chemical Co., St. Louis Mo.) using Renaissance Chemiluminescent Reagents (NEN, Cambridge). Reprecipitations are preformed from Brij 96 lysates prepared from surface-biotinylated SCC cells. […]
(§1) For cross-linking, cells are treated with DTSSP, a membrane impermeable cross-linker or DSP. After solubilization in immunoprecipitation buffer supplemented with 0.2% SDS protein complexes are immunoprecipitated as above and analyzed under reducing conditions.

[1] = target: T1, colligin/CBP2/Hsp47 on the surface of human carcinoma cells (human, UniProt P50454 19-418); experiment: cross-linking (DSP) and immunoprecipitation with anti-CD81 mAbs, SCC cells
T1 construct: whole, on cells; Endogenous protein on intact cells or in plasma membrane preparations or Brij 96 lysates of surface-biotinylated cells; The 46K band is called unglycosylated Hsp47; also called colligin/Hsp47; cell surface colligin/Hsp47
T1 sequence (looked up): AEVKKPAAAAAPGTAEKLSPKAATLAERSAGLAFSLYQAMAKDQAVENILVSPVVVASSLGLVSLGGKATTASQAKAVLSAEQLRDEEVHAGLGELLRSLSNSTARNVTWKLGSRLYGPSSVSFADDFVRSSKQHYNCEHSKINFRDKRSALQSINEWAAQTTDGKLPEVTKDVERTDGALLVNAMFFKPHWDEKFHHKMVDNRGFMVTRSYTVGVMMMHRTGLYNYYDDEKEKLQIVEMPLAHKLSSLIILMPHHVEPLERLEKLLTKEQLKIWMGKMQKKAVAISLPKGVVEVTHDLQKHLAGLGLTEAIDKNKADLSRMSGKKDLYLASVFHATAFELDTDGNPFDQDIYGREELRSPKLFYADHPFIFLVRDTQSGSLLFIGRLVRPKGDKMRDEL
Method: (§2) Reprecipitations are preformed from Brij 96 lysates prepared from surface-biotinylated SCC cells. After five washes with the immunoprecipitation buffer, the protein complexes are dissociated with 0.5% SDS added to the immunoprecipitation buffer. The eluates are subsequently diluted 1:1 with immunoprecipitation buffer and re-precipitated with the appropriate antibodies directly coupled to Sepharose beads. The samples are then processed as described above.
as §1
(§3) Membrane surface proteins are consistently co-precipitated with anti-colligin/Hsp47 antibodies. In cross-linking studies, SCC and LL/2 cells are first pre-treated with a cleavable cross-linker, DSP, then surface labeled with biotin or [^125]-I, and subsequent immunoprecipitation is carried out under stringent conditions to disrupt the noncovalent association between Hsp and tetraspanin protein. […] A characteristic 47K band is readily detected in all anti-CD9 immunoprecipitates and protein band of 22K, similar in size to CD9/or CD81, is co-precipitated with anti-colligin/Hsp47. […]

[2] = target: T2, colligin/Hsp47 on the surface of murine Lewis Lung Carcinoma (LL/2) cells (murine, UniProt P19324 18-417); experiment: cross-linking (DSP) and immunoprecipitation with anti-CD81 mAbs, LL/2 cells
T2 construct: whole, on cells; Endogenous protein of LL/2 cells
T2 sequence (looked up): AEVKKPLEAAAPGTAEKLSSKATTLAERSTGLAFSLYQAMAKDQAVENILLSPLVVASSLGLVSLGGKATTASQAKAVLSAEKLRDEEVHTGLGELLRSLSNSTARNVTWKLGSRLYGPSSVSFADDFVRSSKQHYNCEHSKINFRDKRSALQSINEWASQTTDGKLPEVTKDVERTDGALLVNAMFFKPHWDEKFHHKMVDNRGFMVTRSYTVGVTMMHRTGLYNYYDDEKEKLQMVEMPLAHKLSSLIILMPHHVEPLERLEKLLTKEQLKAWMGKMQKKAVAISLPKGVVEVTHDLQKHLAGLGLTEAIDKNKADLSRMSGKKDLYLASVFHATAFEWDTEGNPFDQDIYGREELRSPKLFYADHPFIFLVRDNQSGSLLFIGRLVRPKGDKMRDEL
Method: as §2, §1, §3

Molecule: N=C(N)NC(=O)c1nc(Cl)c(N)nc1N [amiloride]
invasion index (SCC cells and LL/2 cells): dramatically decreases the invasion index
amount of colligin/Hsp47 recovered following immunoprecipitation (colligin/Hsp47): greatly enhances

binding result [1]: no binding
B1: CD81 on human SCC cells (other, UniProt P60033 1-236, looked up)
chain: MGVEGCTKCIKYLLFVFNFVFWLAGGVILGVALWLRHDPQTTNLLYLELGDKPAPNTFYVGIYILIAVGAVMMFVGFLGCYGAIQESQCLLGTFFTCLVILFACEVAAGIWGFVNKDQIAKDVKQFYDQALQQAVVDDDANNAKAVVKTFHETLDCCGSSTLTALTTSVLKNNLCPSGSNIISNLFKEDCHQKIDDLFSGKLYLIGIAAIVVAVIMIFEMILSMVLCCGIRNSSVY
notes: whole, on cells

binding result [2]: no binding
B2: CD81 on murine LL/2 cells (other, UniProt P35762 1-236, looked up)
chain: MGVEGCTKCIKYLLFVFNFVFWLAGGVILGVALWLRHDPQTTSLLYLELGNKPAPNTFYVGIYILIAVGAVMMFVGFLGCYGAIQESQCLLGTFFTCLVILFACEVAAGIWGFVNKDQIAKDVKQFYDQALQQAVMDDDANNAKAVVKTFHETLNCCGSNALTTLTTTILRNSLCPSGGNILTPLLQQDCHQKIDELFSGKLYLIGIAAIVVAVIMIFEMILSMVLCCGIRNSSVY
notes: whole, on cells

Source: patent publication US7361730B1, “Surface localized colligin/Hsp47 in carcinoma cells” (University of Maryland, priority 1999, dated 2008)
